For 17 compounds, IC50 results are on record in patent US7868013B2, “Cycloalkyl substituted pyrimidinediamine compounds and their uses” (Rigel Pharmaceuticals, Inc., priority 2004, dated 2011).

One experiment has as its system A549 (lung carcinoma). Kind of experiment: In vitro antiproliferation assay, A549 cells (TABLE 1 6 point assay; TABLE 2). The experiment is classed as cell-based. Particulars: Homo sapiens. As for the experimental part: (§1) Certain compounds were tested against other cell types for their ability to inhibit proliferation in standard antiproliferation assays.
The subject of experiment [1] is H1299 (non-small cell lung carcinoma). The experiment in a line: In vitro antiproliferation assay, H1299 cells (TABLE 1 6 point assay; TABLE 2). The experiment is classed as cell-based. The method, then:
as §1

[2] abbreviates: A549, A549 cells, 6 point assay, read-out: A549, 6pt (IC50, inhibition of proliferation).
Setting [3] is: Homo sapiens, NCI-H1299, H1299 cells, 6 point assay, read-out: H1299, 6pt (IC50, inhibition of proliferation).
Setting [4] is: A549, 6 point assay, A549 cells, read-out: IC50, A549 cells.
The mark [5] stands for this setting: Homo sapiens, NCI-H1299, 6 point assay, H1299 cells, read-out: IC50, H1299 cells.
Where [6] appears, read: H1299 cells, 6 point assay, read-out: H1299, 6pt (IC50, inhibition of proliferation).

pIC50: −log10 of the molar value. Where a name gives a salt, the structure may show the parent alone. Read-outs that look alike come from different tables or passages of the source.

Turning to `CN(C)CCN1CCc2cc(Nc3ncc(F)c(NC4C5C=CC(C5)C4C(N)=O)n3)ccc21` (racemic) [compound 171, Racemic-(2-exo, 3-exo)-N4-(3-aminocarbonylbicyclo[2.2.1]hept-5-en-2-yl)-5-fluoro-N2-[N-(2-dimethylaminoethyl)-2,3-dihydro-indol-5-yl]-2,4-pyrimidinediamine Bis Hydrogen Chloride Salt], the pIC50 (with A549 (lung carcinoma) (setting [2]); in experiment [1] (setting [3])) was 6.00 to 7.00 throughout. Take `Cc1cc(Nc2ncc(F)c(NC34CC5CC(CC3C5)C4)n2)ccc1N1CCN(C)CC1` [compound 259, 5-Fluoro-N2-[3-methyl-4-(4-methylpiperazin-1-yl)phenyl]-N4-(3-noradamantyl)-2,4-pyrimidinediamine]: the pIC50 (in the experiment on A549 (lung carcinoma) (setting [4]); in experiment [1] (setting [5])) was 5.00 to 6.00 each time. Take `CNC(=O)c1cc(Nc2ncc(F)c(NC3C4C=CC(C4)C3C(=O)OC)n2)ccc1N1CCN(C)CC1` (racemic) [compound 254, Racemic-(2-exo,3-exo)-5-fluoro-N4-(3-methoxycarbonylbicyclo [2.2.1]hept-5-en-2-yl)-N2-[3-methylaminocarbonyl-4-(4-methylpiperazin-1-yl)phenyl]-2,4-pyrimidinediamine]: the pIC50 (in the experiment with A549 (lung carcinoma) (setting [4]); in experiment [1] (setting [5])) was 5.00 to 6.00 throughout. `CN(C)CCN1CCc2cc(Nc3ncc(F)c(N[C@@H]4[C@H](C(N)=O)[C@H]5C=C[C@@H]4C5)n3)ccc21` [compound 187, (1S,2S,3R,4R)-N4-[3-Aminocarbonylbicyclo[2.2.1]hept-5-en-2-yl]-N2-[1-(2-dimethylaminoethyl)-2,3-dihydroindol-5-yl]-5-fluoro-2,4-pyrimidinediamine]: the pIC50 (with A549 (lung carcinoma) (setting [2]); in experiment [1] (setting [3])) was 5.00 to 6.00 throughout.

On to `COc1cc(Nc2ncc(F)c(N[C@@H]3[C@H](C(N)=O)[C@H]4C=C[C@@H]3C4)n2)ccc1N1C(=O)CN(C)CC1=O` (racemic) [compound 266, Racemic-(2-exo,3-exo)-N4-(3-aminocarbonylbicyclo[2.2.1]hept-5-en-2-yl)-5-fluoro-N2-[3-methoxy-4-(4-methyl-2,6-dioxopiperazino)phenyl]-2,4-pyrimidinediamine], for which the pIC50 (in the experiment on A549 (lung carcinoma) (setting [4]); in experiment [1] (setting [5])) was 6.00 to 7.00 in each case. For the compound `CNC(=O)COc1cc(Nc2ncc(F)c(N[C@H]3CCC[C@H]3C(N)=O)n2)ccc1C` (racemic) [compound 106, Racemic-cis-N4-(2-aminocarbonylcyclopent-1-yl)-5-fluoro-N2-[4-methyl-3-(N-methylamino)carbonylmethyleneoxyphenyl]-2,4-pyrimidinediamine], the pIC50 (with A549 (lung carcinoma) (setting [2]); in experiment [1] (setting [3])) was 5.00 to 6.00 each time. Take `CC(=O)N1CCN(c2cccc(Nc3ncc(F)c(NC4CCCC4C(N)=O)n3)c2)CC1` (stereo not shown) [compound 197, N2-[3-(4-Acetylpiperazino)phenyl]-N4-(2-carboxamidocyclopentyl)-5-fluoro-2,4-pyrimidinediamine]: the pIC50 was 5.00 to 6.00 in the experiment on A549 (lung carcinoma) (setting [4]) and 6.00 to 7.00 in experiment [1] (setting [5]). Consider `Cc1cc(Nc2ncc(F)c(N[C@H]3[C@@H](C(N)=O)[C@@H]4C=C[C@H]3C4)n2)ccc1OCC1CCN(C)CC1` [compound 153, (1R,2R,3S,4S)-N4-(3-Aminocarbonylbicyclo[2.2.1]hept-5-en-2-yl)-5-fluoro-N2-[4-(1-methylpiperidin-4-ylmethyleneoxy)-3-methylphenyl]-2,4-pyrimidinediamine], for which the pIC50 (with A549 (lung carcinoma) (setting [2]); in experiment [1] (setting [3])) was ≥ 7.00 in each case. Turning to `CN1CCN(c2ccc(Nc3ncc(F)c(NC4CCCC4C(N)=O)n3)cc2)CC1` (stereo not shown) [compound 194, N4-(2-Carboxamidocyclopentyl)-5-fluoro-N2-[4-(4-methylpiperazino)phenyl]-2,4-pyrimidinediamine], the pIC50 (with A549 (lung carcinoma) (setting [4]); in experiment [1] (setting [5])) was 6.00 to 7.00 in each case. With `Cc1cc(Nc2ncc(F)c(N[C@H]3[C@@H](C(N)=O)[C@@H]4C=C[C@H]3C4)n2)ccc1NC1CCN(C)CC1` [compound 272, (1R,2R,3S,4S)-N4-(3-Aminocarbonylbicyclo[2.2.1]hept-5-en-2-yl)-5-fluoro-N2-(3-methyl-4-(1-methylpiperidin-4-ylamino)phenyl]-2,4-pyrimidinediamine], the pIC50 (with A549 (lung carcinoma) (setting [4]); in experiment [1] (setting [5])) was ≥ 7.00 in each case. Consider `CN1CCN(c2ccc(Nc3ncc(F)c(NC4CCCC4C(N)=O)n3)cc2Cl)CC1` (stereo not shown) [compound 202, N4-(2-Carboxamidocyclopentyl)-N2-[3-chloro-4-(4-methylpiperazino)phenyl]-5-fluoro-2,4-pyrimidinediamine], for which the pIC50 (in the experiment with A549 (lung carcinoma) (setting [4]); in experiment [1] (setting [5])) was 6.00 to 7.00 in each case. With `Cc1cc(Nc2ncc(F)c(N[C@H]3[C@@H](C(N)=O)[C@@H]4C=C[C@H]3C4)n2)ccc1N1CCN(C)CC1` [compound 140, (1R,2R,3S,4S)-N4-(3-Aminocarbonylbicyclo[2.2.1]hept-5-en-2-yl)-5-fluoro-N2-[3-methyl-4-(4-methylpiperazin-1-yl)phenyl]-2,4-pyrimidinediamine Methanesulfonic Acid Salt], the pIC50 in experiment [1] (setting [6]) was ≥ 7.00.

Turning to `Cc1cc(Nc2ncc(F)c(N[C@H]3[C@@H](C(N)=O)[C@@H]4C=C[C@H]3C4)n2)ccc1N1CCN(C)CC1` [compound 139, (1R,2R,3S,4S)-N4-(3-Aminocarbonylbicyclo[2.2.1]hept-5-en-2-yl)-5-fluoro-N2-[3-methyl-4-(4-methylpiperazin-1-yl)phenyl]-2,4-pyrimidinediamine Trifluoroacetic Acid Salt], the pIC50 in experiment [1] (setting [6]) is ≥ 7.00. Still for that read-out and setting: under `Cc1cc(Nc2ncc(F)c(N[C@H]3[C@@H](C(N)=O)[C@@H]4C=C[C@H]3C4)n2)ccc1N1CCN(C)CC1` [compound 143, (1R,2R,3S,4S)-N4-(3-Aminocarbonylbicyclo[2.2.1]hept-5-en-2-yl)-5-fluoro-N2-[3-methyl-4-(4-methylpiperazin-1-yl)phenyl]-2,4-pyrimidinediamine (S)- Mandelic Acid Salt] stands ≥ 7.00. Consider `Cc1cc(Nc2ncc(F)c(N[C@H]3[C@@H](C(N)=O)[C@@H]4C=C[C@H]3C4)n2)ccc1N1CCN(C)CC1` [compound 141, (1R,2R,3S,4S)-N4-(3-Aminocarbonylbicyclo[2.2.1]hept-5-en-2-yl)-5-fluoro-N2-[3-methyl-4-(4-methylpiperazin-1-yl)phenyl]-2,4-pyrimidinediamine Nitric Acid Salt], for which the pIC50 in experiment [1] (setting [3]) is ≥ 7.00. Consider `Cc1cc(Nc2ncc(F)c(N[C@H]3[C@@H](C(N)=O)[C@@H]4C=C[C@H]3C4)n2)ccc1N1CCN(C)CC1` [compound 144, (1R,2R,3S,4S)-N4-(3-Aminocarbonylbicyclo[2.2.1]hept-5-en-2-yl)-5-fluoro-N2-[3-methyl-4-(4-methylpiperazin-1-yl)phenyl]-2,4-pyrimidinediamine p- Toluenesulfonic Acid Salt], for which the pIC50 in experiment [1] (setting [6]) is ≥ 7.00. For the compound `Cc1cc(Nc2ncc(F)c(N[C@H]3[C@@H](C(N)=O)[C@@H]4C=C[C@H]3C4)n2)ccc1N1CCN(C)CC1` [compound 142, (1R,2R,3S,4S)-N4-(3-Aminocarbonylbicyclo[2.2.1]hept-5-en-2-yl)-5-fluoro-N2-[3-methyl-4-(4-methylpiperazin-1-yl)phenyl]-2,4-pyrimidinediamine Sulfuric Acid Salt], the pIC50 in experiment [1] (setting [6]) was ≥ 7.00.
